Source: paper PMC4490784, “Compensatory induction of MYC expression by sustained CDK9 inhibition via a BRD4-dependent mechanism” (eLife, 2015)

How the values were obtained:
Test in all cases: KINOMEscan binding assay
[1] = molecular target: T1, ABL1(M351T)-nonphosphorylated (Homo sapiens, UniProt P00519, M351T); details: 10 µM i-CDK9; read-out: % Retention on Solid Support
T1 construct: purchased DiscoveRx KINOMEscan
Outline: (§1)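 i-CDK9 at 1 and 10 µM; competition binding against an immobilized active-site probe; >400-kinase panel.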

CAMK4 = molecular target: T2, CAMK4 (Homo sapiens, UniProt Q16566); details: read-out: % Retention on Solid Support
T2 construct: purchased DiscoveRx KINOMEscan
Outline: as §1

CSNK1E = molecular target: T3, CSNK1E (Homo sapiens, UniProt P49674); details: read-out: % Retention on Solid Support
T3 construct: purchased DiscoveRx KINOMEscan
Outline: as §1

DAPK3 = molecular target: T4, DAPK3 (Homo sapiens, UniProt O43293); details: read-out: % Retention on Solid Support
T4 construct: purchased DiscoveRx KINOMEscan
T4 sequence (O43293 whole entry): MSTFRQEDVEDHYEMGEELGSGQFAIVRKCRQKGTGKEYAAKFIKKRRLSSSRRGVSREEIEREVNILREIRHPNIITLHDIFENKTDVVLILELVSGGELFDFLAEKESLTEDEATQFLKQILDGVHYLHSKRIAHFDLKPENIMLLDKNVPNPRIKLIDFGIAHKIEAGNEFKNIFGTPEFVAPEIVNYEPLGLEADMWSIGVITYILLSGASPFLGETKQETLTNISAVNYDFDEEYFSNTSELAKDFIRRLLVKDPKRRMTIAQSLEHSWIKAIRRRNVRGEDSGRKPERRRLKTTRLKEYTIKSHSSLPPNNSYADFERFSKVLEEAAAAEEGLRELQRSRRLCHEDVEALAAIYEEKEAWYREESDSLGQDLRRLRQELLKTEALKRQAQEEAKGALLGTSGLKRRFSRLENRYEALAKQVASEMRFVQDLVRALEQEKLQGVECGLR
Outline: as §1

EGFR(G719S) = molecular target: T5, EGFR(G719S) (Homo sapiens, UniProt P00533, G719S)
T5 construct: purchased DiscoveRx KINOMEscan
Outline: as §1

ERK8 = molecular target: T6, ERK8 (Homo sapiens, UniProt Q8TD08); details: read-out: % Retention on Solid Support
T6 construct: purchased DiscoveRx KINOMEscan
T6 sequence (Q8TD08 whole entry): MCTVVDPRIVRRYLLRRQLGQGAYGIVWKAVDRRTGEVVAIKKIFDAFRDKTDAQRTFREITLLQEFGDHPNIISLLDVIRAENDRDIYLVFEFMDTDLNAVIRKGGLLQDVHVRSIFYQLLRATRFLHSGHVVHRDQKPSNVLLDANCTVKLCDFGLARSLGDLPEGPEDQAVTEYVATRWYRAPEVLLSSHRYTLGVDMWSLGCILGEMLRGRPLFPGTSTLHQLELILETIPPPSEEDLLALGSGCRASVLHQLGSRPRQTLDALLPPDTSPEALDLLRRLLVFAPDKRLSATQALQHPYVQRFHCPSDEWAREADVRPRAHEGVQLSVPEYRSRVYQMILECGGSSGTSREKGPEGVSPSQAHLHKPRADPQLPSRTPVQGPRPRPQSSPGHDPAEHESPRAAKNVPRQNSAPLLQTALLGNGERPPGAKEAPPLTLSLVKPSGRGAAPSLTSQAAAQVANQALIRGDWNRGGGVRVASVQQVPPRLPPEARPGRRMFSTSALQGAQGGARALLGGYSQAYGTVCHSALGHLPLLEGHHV
Outline: as §1

FGFR3 = molecular target: T7, FGFR3 (Homo sapiens, UniProt P22607); details: read-out: % Retention on Solid Support
T7 construct: purchased DiscoveRx KINOMEscan
Outline: as §1

FGR = molecular target: T8, FGR (Homo sapiens, UniProt P09769); details: read-out: % Retention on Solid Support
T8 construct: purchased DiscoveRx KINOMEscan
Outline: as §1

GCN2(Kin.Dom.2,S808G) = molecular target: T9, GCN2(Kin.Dom.2,S808G) (Homo sapiens, UniProt Q9P2K8, S808G); details: read-out: % Retention on Solid Support
T9 construct: GCN2(Kin.Dom.2,S808G); purchased DiscoveRx KINOMEscan
Outline: as §1

GRK7 = molecular target: T10, GRK7 (Homo sapiens, UniProt Q8WTQ7); details: read-out: % Retention on Solid Support
T10 construct: purchased DiscoveRx KINOMEscan
Outline: as §1

GSK3A = molecular target: T11, GSK3A (Homo sapiens, UniProt P49840); details: read-out: % Retention on Solid Support
T11 construct: purchased DiscoveRx KINOMEscan
Outline: as §1

HIPK2 = molecular target: T12, HIPK2 (Homo sapiens, UniProt Q9H2X6); details: read-out: % Retention on Solid Support
T12 construct: purchased DiscoveRx KINOMEscan
Outline: as §1

MAP3K2 = molecular target: T13, MAP3K2 (Homo sapiens, UniProt Q9Y2U5); details: read-out: % Retention on Solid Support
T13 construct: purchased DiscoveRx KINOMEscan
Outline: as §1

MAP4K2 = molecular target: T14, MAP4K2 (Homo sapiens, UniProt Q12851); details: read-out: % Retention on Solid Support
T14 construct: purchased DiscoveRx KINOMEscan
Outline: as §1

MST4 = molecular target: T15, MST4 (Homo sapiens, UniProt Q9P289); details: read-out: % Retention on Solid Support
T15 construct: purchased DiscoveRx KINOMEscan
T15 sequence (Q9P289 whole entry): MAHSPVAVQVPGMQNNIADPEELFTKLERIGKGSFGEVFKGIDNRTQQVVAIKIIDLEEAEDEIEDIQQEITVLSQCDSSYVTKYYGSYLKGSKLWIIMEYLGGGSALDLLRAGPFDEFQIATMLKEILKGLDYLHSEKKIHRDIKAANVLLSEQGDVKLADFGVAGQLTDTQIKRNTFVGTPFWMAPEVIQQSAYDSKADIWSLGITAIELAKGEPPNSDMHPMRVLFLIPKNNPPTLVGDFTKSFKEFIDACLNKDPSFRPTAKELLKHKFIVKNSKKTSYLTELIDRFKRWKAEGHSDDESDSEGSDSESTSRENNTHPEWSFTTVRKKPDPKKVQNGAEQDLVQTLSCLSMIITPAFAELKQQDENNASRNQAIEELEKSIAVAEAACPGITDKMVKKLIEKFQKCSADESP
Outline: as §1

NDR2 = molecular target: T16, NDR2 (Homo sapiens, UniProt Q9Y2H1); details: read-out: % Retention on Solid Support
T16 construct: purchased DiscoveRx KINOMEscan
T16 sequence (Q9Y2H1 whole entry): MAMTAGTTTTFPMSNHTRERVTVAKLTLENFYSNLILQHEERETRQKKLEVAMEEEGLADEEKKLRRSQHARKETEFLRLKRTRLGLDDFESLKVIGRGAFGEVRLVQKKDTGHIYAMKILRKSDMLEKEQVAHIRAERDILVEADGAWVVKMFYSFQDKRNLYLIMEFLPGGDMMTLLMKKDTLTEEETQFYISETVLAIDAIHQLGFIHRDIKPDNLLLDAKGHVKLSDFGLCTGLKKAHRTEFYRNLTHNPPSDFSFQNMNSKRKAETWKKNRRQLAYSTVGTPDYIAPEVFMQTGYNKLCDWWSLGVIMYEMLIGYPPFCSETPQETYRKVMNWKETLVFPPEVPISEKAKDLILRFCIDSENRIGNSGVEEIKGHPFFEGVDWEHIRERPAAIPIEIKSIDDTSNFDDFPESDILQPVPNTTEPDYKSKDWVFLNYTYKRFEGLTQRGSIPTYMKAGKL
Outline: as §1

PAK2 = molecular target: T17, PAK2 (Homo sapiens, UniProt Q13177); details: read-out: % Retention on Solid Support
T17 construct: purchased DiscoveRx KINOMEscan
Outline: as §1

PHKG2 = molecular target: T18, PHKG2 (Homo sapiens, UniProt P15735); details: read-out: % Retention on Solid Support
T18 construct: purchased DiscoveRx KINOMEscan
T18 sequence (P15735 whole entry): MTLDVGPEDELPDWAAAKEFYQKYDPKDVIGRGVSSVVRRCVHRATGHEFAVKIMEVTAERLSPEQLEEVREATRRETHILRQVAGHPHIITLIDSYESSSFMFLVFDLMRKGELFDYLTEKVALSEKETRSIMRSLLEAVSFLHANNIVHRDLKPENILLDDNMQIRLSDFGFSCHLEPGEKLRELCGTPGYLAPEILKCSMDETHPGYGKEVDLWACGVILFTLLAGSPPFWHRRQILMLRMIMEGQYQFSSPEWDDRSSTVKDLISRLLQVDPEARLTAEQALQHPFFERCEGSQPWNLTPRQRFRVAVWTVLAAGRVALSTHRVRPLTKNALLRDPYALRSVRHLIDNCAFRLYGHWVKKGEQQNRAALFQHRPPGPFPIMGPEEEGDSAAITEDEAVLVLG
Outline: as §1

PIK3CA(Q546K) = molecular target: T19, PIK3CA(Q546K) (Homo sapiens, UniProt P42336, Q546K); details: read-out: % Retention on Solid Support
T19 construct: purchased DiscoveRx KINOMEscan
Outline: as §1

PIK4CB = molecular target: T20, PIK4CB (Homo sapiens, UniProt Q9UBF8); details: read-out: % Retention on Solid Support
T20 construct: purchased DiscoveRx KINOMEscan
T20 sequence (Q9UBF8 whole entry): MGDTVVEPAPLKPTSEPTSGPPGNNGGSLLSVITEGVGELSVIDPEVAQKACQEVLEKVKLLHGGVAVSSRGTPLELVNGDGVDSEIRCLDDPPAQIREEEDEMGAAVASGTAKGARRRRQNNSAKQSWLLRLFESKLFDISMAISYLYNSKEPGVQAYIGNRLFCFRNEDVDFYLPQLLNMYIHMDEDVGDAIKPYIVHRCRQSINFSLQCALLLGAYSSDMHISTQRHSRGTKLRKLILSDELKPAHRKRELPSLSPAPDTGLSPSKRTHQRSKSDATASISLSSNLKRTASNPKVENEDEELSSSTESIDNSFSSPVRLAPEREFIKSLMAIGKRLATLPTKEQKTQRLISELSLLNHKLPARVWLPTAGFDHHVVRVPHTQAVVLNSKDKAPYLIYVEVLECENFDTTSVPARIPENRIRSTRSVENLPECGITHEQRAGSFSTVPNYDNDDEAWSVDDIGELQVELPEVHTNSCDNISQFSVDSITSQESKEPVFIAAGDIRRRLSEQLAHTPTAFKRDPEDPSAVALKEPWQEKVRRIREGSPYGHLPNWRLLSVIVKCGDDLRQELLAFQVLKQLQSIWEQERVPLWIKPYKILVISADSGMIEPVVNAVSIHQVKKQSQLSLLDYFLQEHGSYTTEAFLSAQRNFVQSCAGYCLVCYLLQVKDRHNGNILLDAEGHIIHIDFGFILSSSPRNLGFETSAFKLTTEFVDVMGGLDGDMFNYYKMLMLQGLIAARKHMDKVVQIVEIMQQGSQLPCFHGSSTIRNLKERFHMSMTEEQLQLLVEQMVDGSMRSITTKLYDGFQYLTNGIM
Outline: as §1

PRP4 = molecular target: T21, PRP4 (Homo sapiens, UniProt Q13523); details: read-out: % Retention on Solid Support
T21 construct: purchased DiscoveRx KINOMEscan
Outline: as §1

RIPK2 = molecular target: T22, RIPK2 (Homo sapiens, UniProt O43353); details: read-out: % Retention on Solid Support
T22 construct: purchased DiscoveRx KINOMEscan
T22 sequence (O43353 whole entry): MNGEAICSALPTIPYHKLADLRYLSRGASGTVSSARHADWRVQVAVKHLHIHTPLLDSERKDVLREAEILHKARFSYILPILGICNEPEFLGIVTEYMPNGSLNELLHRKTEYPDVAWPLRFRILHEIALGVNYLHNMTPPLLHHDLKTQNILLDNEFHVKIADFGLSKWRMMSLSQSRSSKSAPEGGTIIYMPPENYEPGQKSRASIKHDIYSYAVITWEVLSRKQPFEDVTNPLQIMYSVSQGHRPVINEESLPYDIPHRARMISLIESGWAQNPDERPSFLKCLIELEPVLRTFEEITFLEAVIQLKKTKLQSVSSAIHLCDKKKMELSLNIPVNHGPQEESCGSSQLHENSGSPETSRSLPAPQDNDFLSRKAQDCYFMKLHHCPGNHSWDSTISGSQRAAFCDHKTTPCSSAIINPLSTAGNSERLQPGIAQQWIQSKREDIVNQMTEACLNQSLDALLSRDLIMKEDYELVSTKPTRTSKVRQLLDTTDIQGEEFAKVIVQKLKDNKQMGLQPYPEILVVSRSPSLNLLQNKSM
Outline: as §1

[2] = molecular target: T23, RSK4(Kin.Dom.2-C-terminal) (Homo sapiens, UniProt Q9UK32)
T23 construct: RSK4(Kin.Dom.2-C-terminal); purchased DiscoveRx KINOMEscan
T23 sequence (Q9UK32 401-745 limits assumed): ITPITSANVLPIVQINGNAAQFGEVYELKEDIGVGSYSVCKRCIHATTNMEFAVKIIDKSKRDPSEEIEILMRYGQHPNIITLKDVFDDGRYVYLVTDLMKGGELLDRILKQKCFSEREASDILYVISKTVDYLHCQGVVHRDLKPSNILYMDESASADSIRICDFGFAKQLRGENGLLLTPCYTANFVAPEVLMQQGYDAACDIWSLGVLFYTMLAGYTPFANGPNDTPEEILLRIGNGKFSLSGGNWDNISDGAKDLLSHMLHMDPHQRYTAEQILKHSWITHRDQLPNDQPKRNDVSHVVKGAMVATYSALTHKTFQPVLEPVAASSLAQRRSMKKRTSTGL
Outline: as §1

SRC = molecular target: T24, SRC (Homo sapiens, UniProt P12931); details: read-out: % Retention on Solid Support
T24 construct: purchased DiscoveRx KINOMEscan
Outline: as §1

TESK1 = molecular target: T25, TESK1 (Homo sapiens, UniProt Q15569); details: read-out: % Retention on Solid Support
T25 construct: purchased DiscoveRx KINOMEscan
Outline: as §1

TRPM6 = molecular target: T26, TRPM6 (Homo sapiens, UniProt Q9BX84); details: 1 µM i-CDK9; read-out: % Retention on Solid Support
T26 construct: purchased DiscoveRx KINOMEscan
Outline: as §1

TTK = molecular target: T27, TTK (Homo sapiens, UniProt P33981); details: read-out: % Retention on Solid Support
T27 construct: purchased DiscoveRx KINOMEscan
T27 sequence (P33981 whole entry): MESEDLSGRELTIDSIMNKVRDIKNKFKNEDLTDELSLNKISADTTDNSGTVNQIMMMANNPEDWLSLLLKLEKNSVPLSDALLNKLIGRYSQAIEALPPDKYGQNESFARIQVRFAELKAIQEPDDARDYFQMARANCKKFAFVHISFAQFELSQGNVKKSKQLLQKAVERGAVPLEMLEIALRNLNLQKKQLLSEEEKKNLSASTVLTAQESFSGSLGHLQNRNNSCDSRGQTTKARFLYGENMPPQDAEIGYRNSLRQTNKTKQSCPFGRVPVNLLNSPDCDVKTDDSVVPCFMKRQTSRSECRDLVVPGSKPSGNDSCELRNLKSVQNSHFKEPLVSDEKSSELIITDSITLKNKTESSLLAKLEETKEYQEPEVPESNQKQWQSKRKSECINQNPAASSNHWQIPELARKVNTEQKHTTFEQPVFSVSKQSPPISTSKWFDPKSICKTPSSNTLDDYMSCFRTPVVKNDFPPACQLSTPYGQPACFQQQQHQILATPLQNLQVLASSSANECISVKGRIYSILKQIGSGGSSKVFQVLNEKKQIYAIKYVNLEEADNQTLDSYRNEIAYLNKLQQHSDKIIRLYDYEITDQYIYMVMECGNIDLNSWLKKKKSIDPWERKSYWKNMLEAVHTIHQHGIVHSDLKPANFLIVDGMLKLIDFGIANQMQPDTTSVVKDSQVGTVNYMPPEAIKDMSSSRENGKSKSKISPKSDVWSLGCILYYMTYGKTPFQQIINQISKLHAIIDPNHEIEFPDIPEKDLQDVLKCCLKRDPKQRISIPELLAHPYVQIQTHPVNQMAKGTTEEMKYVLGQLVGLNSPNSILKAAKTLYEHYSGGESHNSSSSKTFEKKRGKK
Outline: as §1

p38-gamma = molecular target: T28, p38-gamma (Homo sapiens, UniProt P53778); details: read-out: % Retention on Solid Support
T28 construct: purchased DiscoveRx KINOMEscan
Outline: as §1

N[C@H]1CC[C@H](Nc2cc(-c3cccc(NCc4cccc(F)c4)n3)c(Cl)cn2)CC1 [i-CDK9, N2′-(trans-4-aminocyclohexyl)-5′-chloro-N6-(3-fluorobenzyl)-2,4′-bipyridine-2′,6-diamine]
remaining binding at 10 µM [1]: 100%
remaining binding at 1 µM (CAMK4; 1 µM i-CDK9): 78%
remaining binding at 10 µM (CAMK4; 10 µM i-CDK9): 100%
remaining binding at 1 µM (CSNK1E; 1 µM i-CDK9): 100%
remaining binding at 10 µM (CSNK1E; 10 µM i-CDK9): 45%
remaining binding at 1 µM (DAPK3; 1 µM i-CDK9): 90%
remaining binding at 10 µM (DAPK3; 10 µM i-CDK9): 70%
% Retention on Solid Support (EGFR(G719S); 1 µM i-CDK9): 100%
% Retention on Solid Support (EGFR(G719S); 10 µM i-CDK9): 100%
remaining binding at 1 µM (ERK8; 1 µM i-CDK9): 85%
remaining binding at 10 µM (ERK8; 10 µM i-CDK9): 20%
remaining binding at 1 µM (FGFR3; 1 µM i-CDK9): 100%
remaining binding at 10 µM (FGFR3; 10 µM i-CDK9): 95%
remaining binding at 1 µM (FGR; 1 µM i-CDK9): 100%
remaining binding at 10 µM (FGR; 10 µM i-CDK9): 98%
remaining binding at 1 µM (GCN2(Kin.Dom.2,S808G); 1 µM i-CDK9): 100%
remaining binding at 10 µM (GCN2(Kin.Dom.2,S808G); 10 µM i-CDK9): 100%
remaining binding at 1 µM (GRK7; 1 µM i-CDK9): 100%
remaining binding at 10 µM (GRK7; 10 µM i-CDK9): 84%
remaining binding at 1 µM (GSK3A; 1 µM i-CDK9): 93%
remaining binding at 10 µM (GSK3A; 10 µM i-CDK9): 8.7%
remaining binding at 1 µM (HIPK2; 1 µM i-CDK9): 100%
remaining binding at 10 µM (HIPK2; 10 µM i-CDK9): 37%
remaining binding at 1 µM (MAP3K2; 1 µM i-CDK9): 23%
remaining binding at 10 µM (MAP3K2; 10 µM i-CDK9): 100%
remaining binding at 1 µM (MAP4K2; 1 µM i-CDK9): 64%
remaining binding at 10 µM (MAP4K2; 10 µM i-CDK9): 10%
remaining binding at 1 µM (MST4; 1 µM i-CDK9): 100%
remaining binding at 10 µM (MST4; 10 µM i-CDK9): 100%
remaining binding at 1 µM (NDR2; 1 µM i-CDK9): 95%
remaining binding at 10 µM (NDR2; 10 µM i-CDK9): 100%
remaining binding at 1 µM (PAK2; 1 µM i-CDK9): 98%
remaining binding at 10 µM (PAK2; 10 µM i-CDK9): 91%
remaining binding at 1 µM (PHKG2; 1 µM i-CDK9): 100%
remaining binding at 10 µM (PHKG2; 10 µM i-CDK9): 72%
remaining binding at 1 µM (PIK3CA(Q546K); 1 µM i-CDK9): 73%
remaining binding at 10 µM (PIK3CA(Q546K); 10 µM i-CDK9): 100%
remaining binding at 1 µM (PIK4CB; 1 µM i-CDK9): 29%
remaining binding at 10 µM (PIK4CB; 10 µM i-CDK9): 84%
remaining binding at 1 µM (PRP4; 1 µM i-CDK9): 14%
remaining binding at 10 µM (PRP4; 10 µM i-CDK9): 100%
remaining binding at 1 µM (RIPK2; 1 µM i-CDK9): 65%
remaining binding at 10 µM (RIPK2; 10 µM i-CDK9): 77%
% Retention on Solid Support ([2]; 1 µM i-CDK9): 53%
% Retention on Solid Support ([2]; 10 µM i-CDK9): 51%
remaining binding at 1 µM (SRC; 1 µM i-CDK9): 87%
remaining binding at 10 µM (SRC; 10 µM i-CDK9): 100%
remaining binding at 1 µM (TESK1; 1 µM i-CDK9): 100%
remaining binding at 10 µM (TESK1; 10 µM i-CDK9): 57%
remaining binding at 1 µM (TRPM6): 92%
remaining binding at 1 µM (TTK; 1 µM i-CDK9): 100%
remaining binding at 10 µM (TTK; 10 µM i-CDK9): 100%
remaining binding at 1 µM (p38-gamma; 1 µM i-CDK9): 100%
remaining binding at 10 µM (p38-gamma; 10 µM i-CDK9): 100%
